Measurements from US6737383B1, “Herbicidal oxadiazolidines” (priority 1999, dated 2004).

Assays:
green foxtail = experiment: Test E green foxtail; type: in vivo, Setaria viridis; conditions: Preemergence
crabgrass = experiment: Test B pre/postemergence crabgrass; type: in vivo, Digitaria sanguinalis
Method in brief: (§1)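 Herbicidal effect was estimated by eye on a ten-point control scale after plants spent twelve to sixteen days in a greenhouse following soil or foliar treatment. Foliar sprays targeted plants at one to four leaves; all doses were formulated in a non-phytotoxic solvent with surfactant.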

winter barley = experiment: Test E winter barley; type: in vivo, Hordeum vulgare; conditions: Preemergence
wheat = experiment: Test B pre/postemergence wheat; type: in vivo, Triticum aestivum
Method in brief: as §1

rice = experiment: Test B flood test rice; type: in vivo, Oryza sativa
Method in brief: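 Each value is a visual injury score relative to controls, with 10 meaning complete control and 0 no effect. Evaluation took place twelve to sixteen days after the 2-leaf-stage plants were treated and kept in the greenhouse.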

blackgrass = experiment: Test E blackgrass; type: in vivo, Alopecurus myosuroides; conditions: Preemergence
winter wheat [1] = experiment: Test E winter wheat; type: in vivo, Triticum aestivum; conditions: Preemergence
winter wheat [2] = experiment: Test E winter wheat; type: in vivo, Triticum aestivum; conditions: Postemergence; for Plant response rating, Wheat (winter): 0 to 100 scale
Method in brief: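 For postemergence, application to 1- to 4-leaf plants growing in a 60:40 sandy loam–potting mix substrate. Formulation: non-phytotoxic solvent mixture plus surfactant. Untreated controls served as the reference for the visual rating after ~21–28 days.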

wild oat [3] = experiment: Test B pre/postemergence wild oat; type: in vivo, Avena fatua
Method in brief: as §1

Italian ryegrass = experiment: Test E Italian ryegrass; type: in vivo, Lolium multiflorum; conditions: Preemergence
wild oat [4] = experiment: Test E wild oat; type: in vivo, Avena fatua; conditions: Preemergence
[5] = Rate 500 g/ha, 0 to 100 scale (0 no effect, 100 complete control)
[6] = Postemergence, Rate 125 g/ha, scale 0 to 10, 0 is no effect, 10 is complete control
[7] = Postemergence, Rate 250 g/ha, scale 0 to 10, 0 is no effect, 10 is complete control
[8] = Postemergence, Rate 500 g/ha, scale of 0 to 10 where 0 is no effect and 10 is complete control
[9] = Preemergence, Rate 62 g/ha, scale 0 to 10 (0 no effect, 10 complete control)
[10] = Preemergence, Rate 250 g/ha, scale of 0 to 10 where 0 is no effect and 10 is complete control
[11] = Preemergence, Rate 500 g/ha, scale of 0 to 10 where 0 is no effect and 10 is complete control
[12] = Rate 62 g/ha, Postemergence, scale of 0 to 10 where 0 is no effect and 10 is complete control
[13] = Rate 125 g/ha, 0 to 100 scale (0 no effect, 100 complete control)
[14] = Rate 250 g/ha, Pre-emergence, flood-test species, scale 0 to 10, 0 is no effect, 10 is complete control
[15] = Rate 500 g/ha, Pre-emergence, flood test species, scale 0 to 10 (0 no effect, 10 complete control)
[16] = Rate 125 g/ha, 0 is no effect, 100 is complete control
[17] = Rate 31 g/ha, 0 to 100 scale, 0 no effect, 100 complete control
[18] = Rate 62 g/ha, 0 to 100 scale, 0 no effect, 100 complete control
[19] = Preemergence, Rate 31 g/ha, visual rating, scale 0 to 10 (0 no effect, 10 complete control)
[20] = Preemergence, Rate 62 g/ha, scale of 0 to 10 where 0 is no effect and 10 is complete control
[21] = Rate 125 g/ha, Postemergence, scale 0 to 10
[22] = Rate 125 g/ha, Preemergence, scale of 0 to 10 where 0 is no effect and 10 is complete control
[23] = Rate 500 g/ha, Postemergence, scale 0 to 10, 0 no effect, 10 complete control

For CC(C)N(C(=O)n1oc(=O)n(CCC#N)c1=O)c1ccc(F)cc1 [Compound 388], the “Plant response rating, Green foxtail” value (green foxtail; Rate 125 g/ha, 0 to 100 scale) was 30, the “Plant response rating, Green foxtail” value (green foxtail; Rate 250 g/ha, 0 to 100 scale) was 40 and the “Plant response rating, Green foxtail” value (green foxtail; [5]) was 85. The “Plant response rating, Crabgrass” value (crabgrass; [6]) was 4, the “Plant response rating, Crabgrass” value (crabgrass; [7]) was 8 and the “Crabgrass plant response rating” value (crabgrass; [8]) was 9. The “Plant response rating, Crabgrass” value (crabgrass; [9]) was 6, the “Crabgrass plant response rating (0 to 10 scale)” value (crabgrass; Preemergence, Rate 125 g/ha) was 8 and the “Crabgrass plant response rating” value (crabgrass; [10]) was 10. The “Crabgrass plant response rating” value (crabgrass; [11]) was 10, the “Crabgrass plant response rating” value (crabgrass; [12]) was 4 and the “Plant response rating, Barley (winter)” value (winter barley; [13]) was 10. The “Plant response rating, Barley (winter)” value (winter barley; Rate 250 g/ha, 0 to 100 scale, 0 no effect, 100 complete control) was 20, the “Plant response rating, Barley (winter)” value (winter barley; [5]) was 70 and the “Plant response rating, Wheat” value (wheat; [6]) was 0. For the same compound, the “Plant response rating, Wheat” value (wheat; [7]) was 3, the “Wheat plant response rating” value (wheat; [8]) was 8 and the “Plant response rating, Wheat” value (wheat; [9]) was 0. The “Wheat plant response rating (0 to 10 scale)” value (wheat; Preemergence, Rate 125 g/ha) was 2, the “Wheat plant response rating” value (wheat; [10]) was 4 and the “Wheat plant response rating” value (wheat; [11]) was 8. The “Wheat plant response rating” value (wheat; [12]) was 0, the “Plant response rating, Rice (0 to 10 scale, 0 is no effect, 10 is complete control)” value (rice; Rate 62 g/ha, flood test species, Pre-emergence, visual evaluation after twelve to sixteen days) was 0 and the “Rice plant response rating (0 to 10 scale, 0 is no effect, 10 is complete control)” value (rice; Rate 125 g/ha, under heading Pre-emergence, flood test species, visual evaluation after twelve to sixteen days) was 0. The “Rice plant response rating” value (rice; [14]) was 0, the “Rice plant response rating” value (rice; [15]) was 0 and the “Plant response rating, Blackgrass” value (blackgrass; Rate 125 g/ha, 0 to 100 scale) was 0. For the same compound, the “Plant response rating, Blackgrass” value (blackgrass; Rate 250 g/ha, 0 to 100 scale) was 0, the “Plant response rating, Blackgrass” value (blackgrass; [5]) was 40 and the “Plant response rating, Wheat (winter)” value (winter wheat [1]; Rate 125 g/ha, 0 to 100 scale) was 50. For the same compound, the “Plant response rating, Wheat (winter)” value (winter wheat [1]; Rate 250 g/ha, 0 to 100 scale) was 50, the “Plant response rating, Wheat (winter)” value (winter wheat [1]; [5]) was 60 and the “Plant response rating, Wheat (winter)” value (winter wheat [2]; [16]) was 30. For the same compound, the “Plant response rating, Wheat (winter)” value (winter wheat [2]; Rate 250 g/ha, 0 is no effect, 100 is complete control) was 30, the “Plant response rating, Wheat (winter)” value (winter wheat [2]; Rate 500 g/ha, 0 is no effect, 100 is complete control) was 65 and the “Plant response rating, Wild oats” value (wild oat [3]; [6]) was 0. The “Plant response rating, Wild oats” value (wild oat [3]; [7]) was 0, the “Wild oats plant response rating” value (wild oat [3]; [8]) was 6 and the “Plant response rating, Wild oats” value (wild oat [3]; [9]) was 3. For the same compound, the “Wild oats plant response rating (0 to 10 scale)” value (wild oat [3]; Preemergence, Rate 125 g/ha) was 6, the “Wild oats plant response rating” value (wild oat [3]; [10]) was 10 and the “Wild oats plant response rating” value (wild oat [3]; [11]) was 10. For the same compound, the “Wild oats plant response rating” value (wild oat [3]; [12]) was 0, the “Plant response rating, I. Ryegrass” value (Italian ryegrass; Rate 125 g/ha, 0 to 100 scale) was 30 and the “Plant response rating, I. Ryegrass” value (Italian ryegrass; Rate 250 g/ha, 0 to 100 scale) was 40. The “Plant response rating, I. Ryegrass” value (Italian ryegrass; [5]) was 60, the “Plant response rating, Wild oat” value (wild oat [4]; Rate 125 g/ha, 0 to 100 scale) was 20 and the “Plant response rating, Wild oat” value (wild oat [4]; Rate 250 g/ha, 0 to 100 scale) was 20. For the same compound, the “Plant response rating, Wild oat” value (wild oat [4]; [5]) was 30.
For CC(C)N(C(=O)n1oc(=O)n(N(C)C)c1=O)c1ccccc1 [Compound 225], the “Plant response rating, Green foxtail” value (green foxtail; [17]) was 30, the “Plant response rating, Green foxtail” value (green foxtail; [18]) was 60 and the “Plant response rating, Green foxtail” value (green foxtail; [13]) was 50. For the same compound, the “Green foxtail plant response rating (0 to 100 scale)” value (green foxtail; Rate 250 g/ha) was 60, the “Crabgrass plant response rating” value (crabgrass; [19]) was 2 and the “Crabgrass plant response rating” value (crabgrass; [20]) was 9. For the same compound, the “Crabgrass plant response rating” value (crabgrass; [10]) was 10, the “Plant response rating, Crabgrass” value (crabgrass; [11]) was 10 and the “Crabgrass plant response rating” value (crabgrass; Rate 31 g/ha, Postemergence, scale 0 to 10) was 0. For the same compound, the “Crabgrass plant response rating” value (crabgrass; [12]) was 5, the “Crabgrass plant response rating” value (crabgrass; [21]) was 8 and the “Crabgrass plant response rating” value (crabgrass; [22]) was 10. For the same compound, the “Crabgrass plant response rating” value (crabgrass; [23]) was 8, the “Plant response rating, Barley (winter)” value (winter barley; [17]) was 0 and the “Plant response rating, Barley (winter)” value (winter barley; [18]) was 50. For the same compound, the “Plant response rating, Barley (winter)” value (winter barley; [13]) was 50, the “Barley (winter) plant response rating (0 to 100 scale)” value (winter barley; Rate 250 g/ha) was 60 and the “Wheat plant response rating” value (wheat; [19]) was 0. For the same compound, the “Wheat plant response rating” value (wheat; [20]) was 5, the “Wheat plant response rating” value (wheat; [10]) was 8 and the “Plant response rating, Wheat” value (wheat; [11]) was 8. The “Wheat plant response rating” value (wheat; [12]) was 3, the “Wheat plant response rating” value (wheat; [21]) was 6 and the “Wheat plant response rating” value (wheat; [22]) was 6. The “Plant response rating (0 to 10; 0 is no effect, 10 is complete control), Wheat” value (wheat; Rate 250 g/ha, Postemergence) was 7, the “Wheat plant response rating” value (wheat; [23]) was 8 and the “Rice plant response rating” value (rice; Rate 62 g/ha, headed Pre-emergence (flood test species), scale 0 to 10 (0 no effect, 10 complete control)) was 0. For the same compound, the “Rice plant response rating” value (rice; Rate 125 g/ha, Pre-emergence, flood test species, scale 0 to 10 where 0 is no effect and 10 is complete control) was 0, the “Rice plant response rating” value (rice; [14]) was 0 and the “Rice plant response rating” value (rice; [15]) was 0. For the same compound, the “Plant response rating, Blackgrass” value (blackgrass; [17]) was 30, the “Plant response rating, Blackgrass” value (blackgrass; [18]) was 50 and the “Plant response rating, Blackgrass” value (blackgrass; [13]) was 60. The “Blackgrass plant response rating (0 to 100 scale)” value (blackgrass; Rate 250 g/ha) was 80, the “Plant response rating, Wheat (winter)” value (winter wheat [1]; [17]) was 10 and the “Plant response rating, Wheat (winter)” value (winter wheat [1]; [18]) was 30. For the same compound, the “Plant response rating, Wheat (winter)” value (winter wheat [1]; [13]) was 65, the “Wheat (winter) plant response rating (0 to 100 scale)” value (winter wheat [1]; Rate 250 g/ha) was 70 and the “Plant response rating, Wheat (winter)” value (winter wheat [2]; Rate 31 g/ha, 0 no effect, 100 complete control) was 50. The “Plant response rating, Wheat (winter)” value (winter wheat [2]; Rate 62 g/ha) was 60, the “Plant response rating, Wheat (winter)” value (winter wheat [2]; [16]) was 75 and the “Wheat (winter) plant response rating” value (winter wheat [2]; Rate 250 g/ha, 0 to 100 scale where 0 is no effect and 100 is complete control) was 70. The “Wild oats plant response rating” value (wild oat [3]; [19]) was 0, the “Wild oats plant response rating” value (wild oat [3]; [20]) was 4 and the “Wild oats plant response rating” value (wild oat [3]; [10]) was 10. The “Plant response rating, Wild oats” value (wild oat [3]; [11]) was 10, the “Wild oats plant response rating” value (wild oat [3]; [12]) was 0 and the “Wild oats plant response rating” value (wild oat [3]; [21]) was 2. For the same compound, the “Wild oats plant response rating” value (wild oat [3]; [22]) was 7, the “Plant response rating (0 to 10; 0 is no effect, 10 is complete control), Wild oats” value (wild oat [3]; Rate 250 g/ha, Postemergence) was 3 and the “Wild oats plant response rating” value (wild oat [3]; [23]) was 2. For the same compound, the “Plant response rating, I. Ryegrass” value (Italian ryegrass; [17]) was 20, the “Plant response rating, I. Ryegrass” value (Italian ryegrass; [18]) was 30 and the “Plant response rating, I. Ryegrass” value (Italian ryegrass; [13]) was 50. For the same compound, the “I. Ryegrass plant response rating (0 to 100 scale)” value (Italian ryegrass; Rate 250 g/ha) was 90, the “Plant response rating, Wild oat” value (wild oat [4]; [17]) was 30 and the “Plant response rating, Wild oat” value (wild oat [4]; [18]) was 40. The “Plant response rating, Wild oat” value (wild oat [4]; [13]) was 50 and the “Wild oat plant response rating (0 to 100 scale)” value (wild oat [4]; Rate 250 g/ha) was 60.
